From patent publication US7491832B2, “Sulfonate compound and fluorescent probe using the same” (Osaka Industrial Promotion Organization, priority 2003, dated 2009) come the findings set out here.

Test [1] in a line: 96-well microplate assay, fluorescence response to H2O2. The note with it: for response to H2O2 (in words): 96-well microplate assay; for detection limit for H2O2: 150 μl probe solution, 25° C., 60 minutes, RSD n=8; for detection limit for H2O2 / Fluorescence Intensity (RFU), H2O2: HEPES pH 7.4; for Fluorescence Intensity (RFU), H2O2: value minus intensity in the absence of H2O2, probe 1a 25 μM, 1b and 1c 5 μM; for slope of the linear calibration curve: H2O2 calibration, detection limit to 92.3 nmol; for upper end of the linear calibration range: linear from the detection limit upward. The method, then:
In this assay, a DMSO solution of the compound 1a (10 mM), a DMSO solution of the compound 1b (2 mM), and a DMSO solution of the compound 1c (2 mM) were provided first and then these solutions were diluted 400-fold with a HEPES buffer solution (pH 7.4, 10 mM). Thus, probe solutions of the respective compounds were prepared. In the respective probe solutions, the concentration of the compound 1a was 25 μM, the concentration of the compound 1b was 5 μM, and the concentration of the compound 1c was 5 μM. Then, 150 μl of each of the probe solutions was allowed to react with H2O2 water (0.92 mM, 10 μl) at 25° C. for 60 minutes. The detection limits of the compounds 1a, 1b, and 1c were 46.0 (RSD, n=8; 1.2%), 23.1 (0.5%), and 4.6 (1.0%) pmol, respectively, which are all acceptable for cellular level detection. With regard to each of the compounds 1a, 1b, and 1c, a linear calibration curve with a correlation coefficient of at least 0.999 was obtained when the detected value was in the range from the detection limit to 92.3 nmol.
(§1) The fluorescence response to H2O2 achieved by each of the thus-obtained compounds 1a, 1b, and 1c was compared with that to HO. (a hydroxyl radical) and that to O2^−. (a superoxide). As a source of HO., the Fenton reaction between H2O2 (1 mM, 10 μl) and Fe^2+ (5 mM, 10 μl) was used. On the other hand, O2^−. was generated by causing an enzyme reaction between hypoxanthine (HPX) (1 mM, 10 μl) and xanthine oxidase (XO) (0.26 U/ml, 10 μl).
(§2) In Table 1, fluorescence responses observed after reacting the compounds 1a, 1b, and 1c with H2O2, HO., or O2^−. were compared with each other. Numbers in Table 1 represent the fluorescence intensity (RFU). Note here that the RFU is a value obtained by subtracting a fluorescence intensity obtained in the absence of H2O2 or HPX from the measured value.

Test [2] can be described thus: microplate assay, fluorescence response in the HPX-XO system (O2-. source), with or without catalase or SOD. As to conditions: for Fluorescence Intensity (RFU), HPX + XO + catalase: HPX + XO with catalase (5000 U/ml, 10 μl); for Fluorescence Intensity (RFU), HPX + XO + catalase / Fluorescence Intensity (RFU), HPX + XO + SOD: blank subtracted; for Fluorescence Intensity (RFU), HPX + XO + SOD: HPX + XO with superoxide dismutase (10 μl); for fluorescence response in the HPX-XO system on addition of catalase (in words): catalase 5000 U/ml; for fluorescence response in the HPX-XO system on addition of catalase (in words) / fluorescence response in the HPX-XO system in the presence of SOD (in words): 10 μl; for Fluorescence Intensity (RFU), HPX + XO: hypoxanthine (1 mM, 10 μl) + xanthine oxidase (0.26 U/ml, 10 μl), blank without HPX subtracted; for fluorescence response in the HPX-XO system in the presence of SOD (in words): superoxide dismutase. How it is done: as §1, §2

Test [3] is described as follows: microplate assay, fluorescence response to HO. from the Fenton reaction (H2O2 + Fe2+). The note with it: for Fluorescence Intensity (RFU), H2O2 + Fe^2+: H2O2 (1 mM, 10 μl) + Fe2+ (5 mM, 10 μl) as HO. source, blank subtracted. The method, then:
as §1, §2

Test [4] is described as follows: microplate assay of the acetylated forms as hydrogen peroxide-detecting probe (esterase requirement). As to conditions: microplate assay similar to that of compounds 1.
For test [5], the system named is Chlamydomonas reinhardtii cells. As to the kind of experiment: fluorescence response of probe-loaded alga cells stimulated with Cu2+, PQ or MB under light or in the dark. In kind it is cell-based. The note with it: FIG. 1; for fluorescence increment (in words) / selectivity for Cu2+ plus light conditions over PQ and MB (in words) / fluorescence response of loaded cells (in words): probe 25 μM; for fluorescence increment (in words): Cu2+ and irradiation with light; for fluorescence response of loaded cells (in words): incubation under irradiation with light in the presence of Cu2+, 60 minutes. The text has this: Photic stimulation can cause oxidative stress in green algae. Stimulation with Cu^2+ causes intracellular generation of various ROS such as superoxides, hydrogen peroxide, and hydroxyl radicals. Furthermore, when alga cells are activated specifically by paraquat (PQ) or methylene blue (MB), oxidative stress can be caused by the generation of a superoxide or ^1O2. […] In order to load alga cells with the compounds 1a, 1b, and 1c, the derivatives 2a, 2b, and 2c (Scheme 3) as acetylated forms of the compounds 1a, 1b, and 1c were used.
More specifically, first, the compounds 2a, 2b, and 2c respectively were dissolved in DMSO, thus obtaining 10 mM stock solutions of the respective compounds. Next, Chlamydomonas reinhardtii (IAM C-238) cultured by an ordinary method was inoculated into 3 ml of an MBM culture solution. Thereafter, the MBM culture solution was loaded with 7.5 μl of each of the stock solutions of the compounds 2a, 2b, and 2c in the dark at 25° C. for 30 minutes. Thus, probe-loaded cell suspensions were prepared. Furthermore, a 96-well tissue culture plate was provided, and 50 μl of a MBM solution containing the indicated concentration of CuCl2, PQ, or […] was added to the plate. The probe-loaded cell suspension (50 μl) was inoculated to the plate and then incubated under irradiation with light or in the dark. After 60 minutes, fluorescence in the cells was measured using a fluorescence measuring device (trade name “CytoFluor II multiwell fluorescence plate reader”, PerSeptive Biosystems, USA). For the measurement, an excitation filter was set at 485±20 nm and an emission filter was set at 530±25 nm.
FIG. 1 contains graphs showing the correlation between a concentration and a fluorescence increment when the fluorescence response was measured by loading Chlamydomonas reinhardtii cells with the compound 2a, 2b, or 2c (25 μM) or DCFH-DA (50 μM) in the dark at 25° C. for 30 minutes and incubating them in 96-well microplates under irradiation with light or in the dark in the presence of Cu^2+, PQ, or MB for 60 minutes. In FIG. 1, an empty circle indicates the result obtained when the incubation was carried out under irradiation with light and a solid circle indicates the result obtained when the incubation was carried out in the dark.

For `O=C(O)c1ccccc1-c1c2cc(F)c(=O)cc-2oc2cc(OS(=O)(=O)c3c(F)c(F)c(F)c(F)c3F)c(F)cc12` [Compound 1c], in test [1], the “response to H2O2 (in words)” value was “H2O2 concentration-dependent response”; the “detection limit for H2O2” value is given as 4.6 pmol; the “Fluorescence Intensity (RFU), H2O2” value is reported as 4375 RFU; the “slope of the linear calibration curve” value was 591 au/nmol. Besides, the “upper end of the linear calibration range” value (shortened to “upper end”) in test [1] was 92.3 nmol. Besides, in test [2], the “Fluorescence Intensity (RFU), HPX + XO + catalase” value is reported as −44 RFU; the “Fluorescence Intensity (RFU), HPX + XO + SOD” value stood at 3340 RFU; the “fluorescence response in the HPX-XO system on addition of catalase (in words)” value (shortened to “fluorescence response … of catalase (in words)”) is “eliminated completely”; the “Fluorescence Intensity (RFU), HPX + XO” value came out at 3580 RFU. Besides, in test [2], the “fluorescence response in the HPX-XO system in the presence of SOD (in words)” value (from here on “fluorescence response … of SOD (in words)”) is “maintained or increased”. In test [3], the “response to HO. compared with that to H2O2 (in words)” value (“response to HO. compared with that” below) was “much smaller than those to H2O2” and the “Fluorescence Intensity (RFU), H2O2 + Fe^2+” value came out at 184 RFU.
On to `CC(=O)Oc1ccc2c(c1)Oc1cc(OS(=O)(=O)c3c(F)c(F)c(F)c(F)c3F)ccc1C21OC(=O)c2ccccc21` (stereo not drawn) [Compound 2a], for which the “requirement of esterase to serve as hydrogen peroxide-detecting probe (in words)” value (“requirement of esterase to serve” below) in test [4] is given as “esterase was necessary”. For the same compound, in test [5], the “fluorescence increment (in words)” value was “great fluorescence increments”; the “selectivity for Cu2+ plus light conditions over PQ and MB (in words)” value is “high selectivity”; the “fluorescence response of loaded cells (in words)” value is listed as “exhibited fluorescence response in a stimulation concentration-dependent manner”.
As for `CC(=O)Oc1cc2c(cc1Cl)C1(OC(=O)c3ccccc31)c1cc(Cl)c(OS(=O)(=O)c3c(F)c(F)c(F)c(F)c3F)cc1O2` (stereo not drawn) [Compound 2b], the “requirement of esterase to serve” value in test [4] is “esterase was necessary”. In addition, the “fluorescence response of loaded cells (in words)” value in test [5] is listed as “exhibited fluorescence response in a stimulation concentration-dependent manner”.
Consider `CC(=O)Oc1cc2c(cc1Cl)C(c1ccccc1C(=O)O)c1cc(Cl)c(OC(C)=O)cc1O2` [DCFH-DA, reference compound], for which, in test [5] (DCFH-DA 50 μM), the “detection of ROS on Cu2+ stimulation (in words)” value is reported as “detected ROS generated by the Cu^2+ stimulation”; the “detection of oxidative stress caused by PQ and MB (in words)” value was “detected the oxidative stress caused by PQ and MB effectively”.
Consider `O=C(O)c1ccccc1-c1c2ccc(=O)cc-2oc2cc(OS(=O)(=O)c3c(F)c(F)c(F)c(F)c3F)ccc12` [Compound 1a], for which, in test [1], the “response to H2O2 (in words)” value was “H2O2 concentration-dependent response”; the “detection limit for H2O2” value is recorded as 46.0 pmol; the “Fluorescence Intensity (RFU), H2O2” value was 1150 RFU; the “slope of the linear calibration curve” value was 172 au/nmol. The “upper end” value in test [1] amounted to 92.3 nmol. In test [2], the “Fluorescence Intensity (RFU), HPX + XO + catalase” value is listed as −49 RFU; the “Fluorescence Intensity (RFU), HPX + XO + SOD” value was 899 RFU; the “fluorescence response … of catalase (in words)” value is “eliminated completely”; the “Fluorescence Intensity (RFU), HPX + XO” value was determined as 566 RFU. The “fluorescence response … of SOD (in words)” value in test [2] is recorded as “maintained or increased”. In addition, in test [3], the “response to HO. compared with that” value is “much smaller than those to H2O2” and the “Fluorescence Intensity (RFU), H2O2 + Fe^2+” value worked out at 28 RFU.
For the compound `O=C(O)c1ccccc1-c1c2cc(Cl)c(=O)cc-2oc2cc(OS(=O)(=O)c3c(F)c(F)c(F)c(F)c3F)c(Cl)cc12` [Compound 1b], in test [1], the “response to H2O2 (in words)” value is on record as “H2O2 concentration-dependent response”; the “detection limit for H2O2” value is recorded as 23.1 pmol; the “Fluorescence Intensity (RFU), H2O2” value was found to be 2193 RFU; the “slope of the linear calibration curve” value is 215 au/nmol. For the same compound, the “upper end” value in test [1] worked out at 92.3 nmol. Further, in test [2], the “Fluorescence Intensity (RFU), HPX + XO + catalase” value is −51 RFU; the “Fluorescence Intensity (RFU), HPX + XO + SOD” value is 1733 RFU; the “fluorescence response … of catalase (in words)” value is on record as “eliminated completely”; the “Fluorescence Intensity (RFU), HPX + XO” value was determined as 1733 RFU. For the same compound, the “fluorescence response … of SOD (in words)” value in test [2] is reported as “maintained or increased”. In test [3], the “response to HO. compared with that” value is given as “much smaller than those to H2O2” and the “Fluorescence Intensity (RFU), H2O2 + Fe^2+” value is reported as 195 RFU.
`CC(=O)Oc1cc2c(cc1F)C1(OC(=O)c3ccccc31)c1cc(F)c(OS(=O)(=O)c3c(F)c(F)c(F)c(F)c3F)cc1O2` (stereo not drawn) [Compound 2c]: the “requirement of esterase to serve” value in test [4] is on record as “esterase was necessary”. In test [5], the “fluorescence increment (in words)” value was “great fluorescence increments”; the “selectivity for Cu2+ plus light conditions over PQ and MB (in words)” value is “high selectivity”; the “fluorescence response of loaded cells (in words)” value is “exhibited fluorescence response in a stimulation concentration-dependent manner”.
